Entries after “also recorded” stand apart in the source; their conditions may differ.
Experiments:
[1] = test system: normal human lung fibroblasts (NHLF); assay: Lactate dehydrogenase (LDH) release assay, NHLF; assay type: cell-based; conditions: 32 nM, 72 hours
Method: Both cell lines were cultured in HG-DMEM (ThermoFisher Scientific Catalog No. 11965-092) supplemented with 20 mM HEPES (4-(2-hydroxyethyl)-1-piperazineethanesulfonic acid), 4 mM L-glutamine, 1 mM sodium pyruvate, 1× non-essential amino acids, 50 μg/ml gentamicin and 10% fetal bovine serum (FBS). H460 and NHLF cells were seeded into 96-well plates at 5,000 cells per well, following a 2-day FBS deprivation, and released by culture in complete culture medium containing 10% FBS. […] By 72 hours post treatment, cell death was determined by observing cell morphology using a phase contrast microscope at 150×.
The cell death was also quantified using lactate dehydrogenase (LDH) releasing assay. For the LDH assay, a mixture of a 35 μl aliquot of culture medium and 17.5 μl of substrate, enzyme, and dye solutions (Sigma, St. Louis, Mo., U.S.A.) was incubated at room temperature for 30 minutes, and absorbance was measured at 490 nm using a plate reader (ELx805; BioTek, Winooski, Vt., U.S.A.).

MOLM-14 cells = assay: MTS cell viability assay, MOLM-14; assay type: cell-based, human; conditions: MOLM-14, 24 hours
Method: Human H460 cells were obtained from the American Type Culture Collection (ATCC; Manassas, Va., U.S.A.). […] Human MOLM-14 cells were obtained from Dr. Ashkan Emadi at University of Maryland (Baltimore. Md., U.S.A.). The MOLM-14 cells were seeded at a density of 5000 cells/well in 96-well plates and cultured in RPMI 1640 with 20% heat-inactivated FBS. The H460 and MOLM-14 cells were treated with naked antibodies or ADCs for 24 hours, starting at the time of cell seeding. By the end of experiment, the cell viability for both cell lines was determined quantitatively using CELL TITER 96 AQUOUS ONE SOLUTION cell proliferation assay, a colorimetric method for determining the number of viable cells (MTS; Promega, Madison. Wis., U.S.A.; Catalog No. G3582).

[2] = test system: MIA-PaCa-2 ASPH-derived tumors; assay: Mouse model inoculated with pancreas cancer cells, MIA-PaCa-2 ASPH tumors; assay type: in vivo
Method: The efficacy and specificity of SNS622-MC-DM1 was first examined in the mouse model with inoculation of pancreas cancer cells. In this model. 5 to 6-week-old female Nod Scid Gamma (NSG) mice (The Jackson Laboratory, Bar Harbor, Me., U.S.A.) were subcutaneously inoculated with 5×10^5 MIA-PaCa-2 EV cells (MIA-PaCa-2 cells transduced with an empty lentivirus vector) in 100 μl buffer solution on one shoulder, and with 5×10^5 MIA-PaCa-2 ASPH cells (MIA-PaCa-2 cells expressing high levels of ASPH) in 100 μl buffer solution on the other shoulder Two weeks post-inoculation, SNS622-MC-DM1 or IgG1-MC-DM1 was injected at 5 mg/kg through a tail vein once a week for 4 weeks. A representation of the schedule used for the ADC treatments is show n in FIG. 13.
The volume of the tumors inoculated with the MIA-PaCa-2 ASPH cells was measured starting at day 1 of treatment with ADC, and the results are shown in FIG. 15B.

H460 lysate = molecular target: T1, H460 lysate (Homo sapiens, UniProt Q12797); assay: Binding of naked antibodies and ADCs to H460 lysate
T1 construct: A 96-well plate was coated with H460 lysate and dried at room temperature overnight; endogenous in cells; host or cells: H460 lysate (sonicated, supernatant)
T1 sequence (Q12797 1-758): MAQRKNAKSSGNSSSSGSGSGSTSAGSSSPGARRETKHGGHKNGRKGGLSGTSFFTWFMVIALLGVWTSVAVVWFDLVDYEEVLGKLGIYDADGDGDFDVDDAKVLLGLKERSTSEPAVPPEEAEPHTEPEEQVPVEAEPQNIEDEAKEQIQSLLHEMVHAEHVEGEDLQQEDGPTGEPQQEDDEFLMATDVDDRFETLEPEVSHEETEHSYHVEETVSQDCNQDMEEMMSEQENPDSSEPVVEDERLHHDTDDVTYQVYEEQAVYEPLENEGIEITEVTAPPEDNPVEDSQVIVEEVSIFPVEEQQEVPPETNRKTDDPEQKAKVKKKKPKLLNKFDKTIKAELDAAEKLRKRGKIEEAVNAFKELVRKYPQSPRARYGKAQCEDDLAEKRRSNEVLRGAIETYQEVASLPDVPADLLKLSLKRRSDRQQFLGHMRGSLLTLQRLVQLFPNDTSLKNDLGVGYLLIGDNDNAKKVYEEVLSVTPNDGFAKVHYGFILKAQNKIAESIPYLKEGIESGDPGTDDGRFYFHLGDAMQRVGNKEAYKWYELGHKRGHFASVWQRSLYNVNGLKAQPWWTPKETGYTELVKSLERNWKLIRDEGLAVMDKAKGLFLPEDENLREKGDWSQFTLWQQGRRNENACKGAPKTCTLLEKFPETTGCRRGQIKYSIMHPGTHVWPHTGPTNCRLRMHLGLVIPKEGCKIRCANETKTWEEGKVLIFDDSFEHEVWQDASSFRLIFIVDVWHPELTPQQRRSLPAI
Method: H460 cells were harvested, the cell density was adjusted to 2×10^6 cells/ml with PBS, and the resuspended cells sonicated on ice twice in 30 second pulses. After centrifugation at 300×g for 5 minutes the supernatant was collected and the protein concentration measured using a NANODROP spectrophotometer (ThermoFisher Scientific). A 96-well plate was coated with H460 lysate and dried at room temperature overnight. Following a 1-hour blockage with 1% non-fat dry milk in phosphate buffered saline (PBS), the plates were incubated for 45 minutes at 37° C. with each either 0.5 μg/ml IgG1λ (non-specific monoclonal antibody), IgG1λ-MC-DM1 (non-specific ADC), or SNS622-MC-DM1, or with 5 μg/ml SNS622. Following five PBS rinses to remove un-bound antibody. 1:100 goat anti-human IgG (8)-HRP was added and the plates incubated for 30 minutes at 37° C. Following five PBS rinses TMB substrate was added and, after incubation of the plates for 15 minutes at room temperature. Stop solution was added to terminate the reactions. The plates were read at 450 nm using a 96-well plate reader (ELx808, BioTek).

Substance: SNS622-MC-DM1: SNS622 anti-HAAH monoclonal antibody conjugated to mertansine (DM1) by the non-cleavable linker maleimidocaproyl (MC)
- Increase in LDH release [1]: did not result in a detectable increase in LDH release
- Effect on MOLM-14 cell viability / growth (MTS) (MOLM-14 cells): inhibit in vitro cell growth of both H460 and MOLM-14; also recorded: greatest suppression in the growth of MOLM-14 cells
- Effect on MIA-PaCa-2 ASPH tumor volume / growth ([2]; 5 mg/kg, up to 29 days): robustly suppressed; also recorded: strongly suppressed growth of MIA-PaCa-2 ASPH-derived tumors
- Reduction in tumor volume in comparison with IgG-MC-DM1 group ([2]; day 15, 5 mg/kg tail vein once a week): approximately 55%
- Reduction in tumor volume in comparison with IgG-MC-DM1 group ([2]; day 22, 5 mg/kg tail vein once a week): approximately 53%
- Reduction in tumor volume in comparison with IgG-MC-DM1 group ([2]; day 29, 5 mg/kg tail vein once a week): approximately 53%
- Volume of MIA-PaCa-2 ASPH-derived tumors relative to MIA-PaCa-2 EV-derived tumors ([2]; treatment day 29, same mouse, 5 mg/kg): approximately 1/7
- Percent binding (H460 lysate; percent of loading amount bound): 107%
- Binding amount (H460 lysate; sonicated H460 (2E^6 cells/ml), loading 5.0 or 0.5 μg/ml): 5.35 µg/mL

From US20200390902A1, “Antibody-Drug Conjugates Targeted at Human Aspartyl-(Asparaginyl)-B-Hydroxylase (HAAH)” (Panacea Pharmaceuticals, Inc., priority 2017, published 2020)
